In US7235536B2, “Cellulose sulfate and other sulfated polysaccharides to prevent and treat papilloma virus infection and other infections” (Rush Presbyterian-St. Luke's Medical Center, priority 2000, dated 2007):

Key:
[1] = tested on: Porphyromonas asaccharolytica; assay: Broth method MIC; assay type: cell-based; conditions: for CS MIC: Broth (study 2)
[2] = tested on: Eubacterium lentum; assay: Broth method MIC; assay type: cell-based; conditions: for CS MIC: Broth (study 2)
[3] = in vivo
Excerpt: Cellulose sulfate offers a further advantage in that irritation by a cytotoxic agent can cause lesions which may facilitate infection and the use of cellulose sulfate is not associated with such risks of infection.

[4] = tested on: Candida albicans; assay: Microbial challenge of CS gel; assay type: cell-based
Procedure: (§1) 6% CS was prepared in water as a translucent gel. Twenty grams of the gel was placed in a plastic screw-cap centrifuge tube. The microbial inoculants were prepared, gently vortexed and 0.1 ml inoculant was aseptically pipetted into the 20.0 gram gel. This procedure was repeated for each microbial organism. The samples were incubated at room temperature (20-25° C.) for 14 days or 28 days. The microbes tested and their theoretical yields can be found in Table F. After 14 or 28 days incubation, dilutions (10^−1, 10^−2, 10^−3) of the gels were made in saline and 1 ml plated onto Sabouraud dextrose (Aspergillus and Candida) or onto tryptic soy (other microbes). The number of organisms that grew after 3-7 days at room temperature were counted.
(§2) In another study, CS was dissolved in water at the concentrations indicated below. No other ingredients, including preservatives, were added. The gels were challenged with microbes as described above except that the gels were examined for the presence of microbes after 1, 2, 3, 4 and 7 days. The amount of microbes origially inoculated in the gels is also shown below.

[5] = tested on: Pseudomonas aeruginosa; assay: Microbial challenge of CS gel; assay type: cell-based
Procedure: as §1, §2

[6] = tested on: BPV-1; assay: BPV-1 focus-forming assay, cells pre-incubated with compound and washed before virus (Table D); assay type: cell-based, bovine papilloma virus; conditions: for Average ± standard deviation (foci/well): C127-D10 cells, washed before virus
Procedure: Microbicidal activity of compounds was also tested by pre-incubation of cells with compounds followed by addition of virus to compound-coated C127 cells. In these experiments, dilutions of compounds were added to cultures of C127 cells, incubated for 1 hr at 37° C., washed 3 times with media to remove unbound compound, prior to addition of approximately 100 focus-forming units of BPV-1. The cultures were incubated for an additional hour, washed three times to remove unbound virus, then the incubation was continued for two weeks with media changes every 3-4 days and foci counted as described above.
Pre-incubation of C127-D10 cells with compounds prior to addition of BPV-1 was tested to determine whether the microbicidal effects of CS and DS extended to a blockage of virus interaction with cell surfaces. In these experiments, titrations of compounds were added to cell cultures followed by washing away unbound reagent prior to addition of virus. After a one-hour incubation with virus, unbound virus was removed by washing and the cultures monitored for foci after two weeks.

[7] = tested on: Peptostreptococcus magnus; assay: Broth method MIC; assay type: cell-based; conditions: for CS MIC: Broth (study 2)
[8] = tested on: Bacteroides thetaiotaomicron; assay: Agar method MIC; assay type: cell-based
[9] = tested on: trichomonas vaginalis; assay: Inhibition of Trichomonas growth, live count; assay type: cell-based; conditions: for number of live trichomonas: 5 mg/ml
Procedure: The inhibitory effect of CS on trichomonas vaginalis, protozoa known to cause vaginitis, is shown below. The organisms were grown in modified Diamond's medium. CS was mixed with the organism in modified Diamond's medium at a final concentration of about 5 mg/ml (5.12 mg/ml) and incubated anaerobically at 35° C. Samples were collected at various time points and the number of live trichomonas counted with a hemacytomer. The same procedure was performed in the absence of CS. The volume of the inoculum was varied as indicated in the Tables to study the effect of increasing amounts of the organism on the results.

sodium cellulose sulfate
growth inhibition ([1]; at the concentrations tested): Two strains of Porphyromonas asaccharolytica were inhibited but a third one was not | CS MIC ([1]; rma# 11656): 5 mg/mL | CS MIC ([1]; rma# 11690): NI (not inhibited by 10 mg/ml (the highest concentration tested)) | growth inhibition ([2]; both strains): inhibited | CS MIC ([2]; rma# 9420): 5 mg/mL | CS MIC ([2]; rma# 11700): 10 mg/mL | tolerability versus K-Y Jelly [3]: as well as or even better than K-Y Jelly | tolerability versus nonoxynol-9 [3]: better tolerated than nonoxynol-9 | Day 14 CFU/g ([4]; 6% CS gel, ATCC 10231, room temperature, Day 14): 0 CFU/g | Day 28 CFU/g ([4]; 6% CS gel, ATCC 10231, room temperature, Day 28): 0 CFU/g | Candida albicans CFU ([4]; CS 0.06% in water, 24 hours): 0 CFU × 10^5/ml | Candida albicans CFU ([4]; CS 0.06% in water, 48 hours): 0 CFU × 10^5/ml | Candida albicans CFU ([4]; CS 0.06% in water, 72 hours): 0 CFU × 10^5/ml | Candida albicans CFU ([4]; CS 0.06% in water, 96 hours): 0 CFU × 10^5/ml | Candida albicans CFU ([4]; CS 0.06% in water, 7 days): 0 CFU × 10^5/ml | Candida albicans CFU ([4]; CS 0.6% in water, 24 hours): 0 CFU × 10^5/ml | Candida albicans CFU ([4]; CS 0.6% in water, 48 hours): 0 CFU × 10^5/ml | Candida albicans CFU ([4]; CS 0.6% in water, 72 hours): 0.62 CFU × 10^5/ml | Candida albicans CFU ([4]; CS 0.6% in water, 96 hours): 0.655 CFU × 10^5/ml | Candida albicans CFU ([4]; CS 0.6% in water, 7 days): 0.535 CFU × 10^5/ml | Candida albicans CFU ([4]; CS 1.2% in water, 24 hours): 0 CFU × 10^5/ml | Candida albicans CFU ([4]; CS 1.2% in water, 48 hours): 0 CFU × 10^5/ml | Candida albicans CFU ([4]; CS 1.2% in water, 72 hours): 0 CFU × 10^5/ml | Candida albicans CFU ([4]; CS 1.2% in water, 96 hours): 0 CFU × 10^5/ml | Candida albicans CFU ([4]; CS 1.2% in water, 7 days): 0 CFU × 10^5/ml | Candida albicans CFU ([4]; CS 6% in water, 24 hours): 0 CFU × 10^5/ml | Candida albicans CFU ([4]; CS 6% in water, 48 hours): 0 CFU × 10^5/ml | Candida albicans CFU ([4]; CS 6% in water, 72 hours): 0 CFU × 10^5/ml | Candida albicans CFU ([4]; CS 6% in water, 96 hours): 0 CFU × 10^5/ml | Candida albicans CFU ([4]; CS 6% in water, 7 days): 0 CFU × 10^5/ml | inactivation of Candida ([4]; CS gel 1.2 and 6%): Complete inactivation | inactivation of Candida ([4]; CS gel in as low a concentration as 0.6%): inactivated | inactivation of Pseudomonas ([5]; 6% CS gel): completely inactivated | Day 14 CFU/g ([5]; 6% CS gel, ATCC 9027, room temperature, Day 14): 0 CFU/g | Day 28 CFU/g ([5]; 6% CS gel, ATCC 9027, room temperature, Day 28): 0 CFU/g | Pseudomans aeruginosa CFU ([5]; CS 0.06% in water, 24 hours): 0 CFU × 10^5/ml | Pseudomans aeruginosa CFU ([5]; CS 0.06% in water, 48 hours): 0.48 CFU × 10^5/ml | Pseudomans aeruginosa CFU ([5]; CS 0.06% in water, 72 hours): 1.125 CFU × 10^5/ml | Pseudomans aeruginosa CFU ([5]; CS 0.06% in water, 96 hours): 1.87 CFU × 10^5/ml | Pseudomans aeruginosa CFU ([5]; CS 0.06% in water, 7 days): 2.04 CFU × 10^5/ml | Pseudomans aeruginosa CFU ([5]; CS 0.6% in water, 24 hours): 5.43 CFU × 10^5/ml | Pseudomans aeruginosa CFU ([5]; CS 0.6% in water, 48 hours): 6.80 CFU × 10^5/ml | Pseudomans aeruginosa CFU ([5]; CS 0.6% in water, 72 hours): 4.43 CFU × 10^5/ml | Pseudomans aeruginosa CFU ([5]; CS 0.6% in water, 96 hours): 6.92 CFU × 10^5/ml | Pseudomans aeruginosa CFU ([5]; CS 0.6% in water, 7 days): 6.05 CFU × 10^5/ml | Pseudomans aeruginosa CFU ([5]; CS 1.2% in water, 24 hours): 2.08 CFU × 10^5/ml | Pseudomans aeruginosa CFU ([5]; CS 1.2% in water, 48 hours): 2.625 CFU × 10^5/ml | Pseudomans aeruginosa CFU ([5]; CS 1.2% in water, 72 hours): 2.31 CFU × 10^5/ml | Pseudomans aeruginosa CFU ([5]; CS 1.2% in water, 96 hours): 2.82 CFU × 10^5/ml | Pseudomans aeruginosa CFU ([5]; CS 1.2% in water, 7 days): 4.79 CFU × 10^5/ml | Pseudomans aeruginosa CFU ([5]; CS 6% in water, 24 hours): 0 CFU × 10^5/ml | Pseudomans aeruginosa CFU ([5]; CS 6% in water, 48 hours): 0 CFU × 10^5/ml | Pseudomans aeruginosa CFU ([5]; CS 6% in water, 72 hours): 0 CFU × 10^5/ml | Pseudomans aeruginosa CFU ([5]; CS 6% in water, 96 hours): 0 CFU × 10^5/ml | Pseudomans aeruginosa CFU ([5]; CS 6% in water, 7 days): 0 CFU × 10^5/ml | inactivation of Pseudomonas ([5]; lower CS concentrations): not inactivated but growth was prevented | Average ± standard deviation (foci/well) ([6]; 10 μg/ml): 103 ± 6.3 foci/well | Average ± standard deviation (foci/well) ([6]; 100 μg/ml): 120 ± 8.4 foci/well | Average ± standard deviation (foci/well) ([6]; 1,000 μg/ml): 87 ± 45.1 foci/well | Average ± standard deviation (foci/well) ([6]; 10,000 μg/ml): 2 ± 1.3 foci/well | microbicidal effects ([6]; C127-D10 cells pre-treated, except at 10 mg/ml): only weak microbicidal effects | growth inhibition ([7]; all strains): inhibited | CS MIC ([7]; rma# 11598): 5 mg/mL | CS MIC ([7]; rma# 11658): 5 mg/mL | CS MIC ([8]; ATCC (first listed)): >0.625 mg/mL | CS MIC ([8]; rma# 11604): >0.625 mg/mL | CS MIC ([8]; rma# 11651): >0.625 mg/mL | growth of the trichomonas culture ([9]; 5 mg/ml CS): Complete inhibition of growth | number of live trichomonas ([9]; 16 hr, 50 μl Trich): 0 organisms per ml | number of live trichomonas ([9]; 16 hr, 100 μl Trich): 0 organisms per ml | number of live trichomonas ([9]; 16 hr, 200 μl Trich): 0 organisms per ml | number of live trichomonas ([9]; 16 hr, 400 μl Trich): 0 organisms per ml | number of live trichomonas ([9]; 24 hr, 50 μl Trich): 0 organisms per ml | number of live trichomonas ([9]; 24 hr, 100 μl Trich): 0 organisms per ml | number of live trichomonas ([9]; 24 hr, 200 μl Trich): 0 organisms per ml | number of live trichomonas ([9]; 24 hr, 400 μl Trich): 0 organisms per ml | number of live trichomonas ([9]; 40 hr, 50 μl Trich): 0 organisms per ml | number of live trichomonas ([9]; 40 hr, 100 μl Trich): 0 organisms per ml | number of live trichomonas ([9]; 40 hr, 200 μl Trich): 0 organisms per ml | number of live trichomonas ([9]; 40 hr, 400 μl Trich): 0 organisms per ml | number of live trichomonas ([9]; 48 hr, 50 μl Trich): 0 organisms per ml | number of live trichomonas ([9]; 48 hr, 100 μl Trich): 0 organisms per ml | number of live trichomonas ([9]; 48 hr, 200 μl Trich): 0 organisms per ml | number of live trichomonas ([9]; 48 hr, 400 μl Trich): 0 organisms per ml
